Data set [1] addresses T1, Aedes aegypti Orco (Aedes aegypti, UniProt Q178U6).
T1 construct: expressed in transfected cells; host or cells: Xenopus oocytes injected with capped Orco RNA from linearized pSP64DV
T1 sequence (Q178U6 1-478): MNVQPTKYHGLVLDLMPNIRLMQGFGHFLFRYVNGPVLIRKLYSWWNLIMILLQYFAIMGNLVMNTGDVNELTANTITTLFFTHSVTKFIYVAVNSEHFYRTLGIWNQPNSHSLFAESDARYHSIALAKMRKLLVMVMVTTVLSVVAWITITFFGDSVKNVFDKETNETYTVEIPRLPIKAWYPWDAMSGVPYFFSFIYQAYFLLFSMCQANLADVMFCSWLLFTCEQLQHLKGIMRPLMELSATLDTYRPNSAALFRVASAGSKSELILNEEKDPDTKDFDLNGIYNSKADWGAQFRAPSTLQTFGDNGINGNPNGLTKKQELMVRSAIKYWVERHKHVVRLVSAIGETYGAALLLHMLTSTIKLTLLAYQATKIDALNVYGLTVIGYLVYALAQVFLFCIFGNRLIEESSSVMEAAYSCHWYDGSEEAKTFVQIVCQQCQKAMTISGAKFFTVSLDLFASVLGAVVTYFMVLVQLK
The data set is described as follows: two-electrode voltage clamp of Xenopus oocytes expressing Orco. It counts as cell-based. Particulars: for effect on VUAA1-activated Orco: oocytes expressing Aedes aegypti Orco, 2.10-4 M VUAA1 with equimolar concentration of antagonist. An excerpt:
FIG. 4A-Chemical structures of tested compounds. FIG. 4B-Representative current traces of oocytes expressing Aedes aegypti Orco following exposure to 2.10-4 M VUAA1 alone or in combination with equimolar concentrations of the antagonists octadienal and carvacrol. FIG. 4C-Normalized responses of AaegOrco to VUAA1 alone or in combination with octadienal or carvacrol. Odorants effects were statistically significant (one-way ANOVA followed by Tukey's post-test; P<0.0001; mean responses+s.e.m.; VUAA1 alone, n=7; octadienal & carvacrol n=6).
(§1) Orco expression, electrophysiology and purification. Supply of Orco-rich membranes will be predicated on the functional validation carried out using the two-electrode voltage clamp of Xenopus oocytes expressing this receptor. Expression and recordation of the pharmacological activity of mosquito odorant receptor complexes (ORx-Orco) in Xenopus oocytes has been studies extensively. This technique to study the agonist activity of Orco agonists (e.g., VUAA1) and antagonists (e.g., octadienal and carvacrol) (as shown in FIG. 4A) or associated with ORx has been achieved. In some cases Orco rather than ORx was used in order to reduce potential pitfalls associated with OR complexes. In some cases, ORx alone is not functional without its co-receptor chaperone. Two types of expression vectors adapted to Xenopus oocyte expression are used. pSP64DV was used to record currents reaching over 1 μA from Orco exposed to VUAA1, indicating high protein levels (FIG. 4B). Considering the objective to extract Orco-rich membrane fragments less than <50 nm in length, receptor density should be sufficient to ensure that these short fragments contain Orco. To evaluate Orco density, this gene was expressed using the pCMV6-AC-mKate expression vectors (Origene), or other tagged version. This plasmid functions well in Xenopus oocytes and adds a constitutively fluorescent mKate2 tag on the C-terminus of the protein of interest (here Orco) that can be directly or indirectly (fluorescence immunohistochemistry) detected by confocal scanning laser microscopy. […]
Background: Two-electrode voltage clamp is typically applied to oocytes expressing channels or transporters.

For data set [2] the following is noted: cited from earlier work.
Data set [3] concerns the target OR2 (Anopheles gambiae, UniProt Q8WTE6). Particulars: background, based on cell-based assays; cited from earlier work.
The test system of data set [4] is OR8 from Aedes aegypti (AaOR8). The data set is described as follows: mosquito odorant receptor 8 activation by odorants (AaOR8). Particulars: FIG. 17A. Type of data set: cell-based. An excerpt:
(§2) FIG. 17B-OR8 is an enantioselective octenol receptor, distinguishing between the (R)-enantiomer, which is the most abundant form in nature, and the(S)-enantiomer.
(§3) Indeed, any modifications of the double bond saturation, side chain length, chiral center position, or functional substitution of the (R)-1-octen-3-ol chemical structure is sufficient to prevent OR8 from being activated (FIG. 17B).

Data set [5] concerns mosquito odorant receptors known as OR8. Description: mosquito odorant receptor OR8 activation and odorant tuning. Type of data set: cell-based. The following applies: FIG. 17A.
Excerpt: as §3
These studies established OR8 as a sensitive enantioselective odorant receptor, whose narrow odorant tuning is optimal in the nanomolar range, which is excellent in the field of receptor pharmacology. […] OR8 is the epitome of receptor selectivity, being able to reject any slight modification on the (R)-1-octen-3-ol backbone manifesting in complete activation shutdown (FIG. 17B). At a low concentration the receptor is specific to (R)-1-octen-3-ol (FIG. 17C), which is a desirable property for the purpose of using this receptor to detect early signs of microbial contamination or presence.

Data set [6] concerns OR8 from Toxorhynchites amboinensis (TaOR8). Description: mosquito odorant receptor 8 activation by odorants (TaOR8). It counts as cell-based. Particulars: FIG. 17A.
Excerpt: as §2, §3

Data set [7] has as its system Toxorhynchites amboinensis OR8 (TaOR8). The data set is described as follows: Activation of mosquito odorant receptor OR8 from Toxorhynchites amboinensis (TaOR8), FIG. 17A. Type of data set: cell-based. The following applies: molar concentration, read-out: T. amboinensis OR8 (TaOR8) EC50.
Excerpt: as §2
as §1, with “Considering the objective to extract Orco-rich membrane fragments less than <50 nm in length, receptor density should be sufficient to ensure that these short fragments contain Orco. To evaluate Orco density, this gene was expressed using the pCMV6-AC-mKate expression vectors (Origene), or other tagged version.” left out

Data set [8] deals with T2, Aedes aegypti OR8 (AaOR8) (Aedes aegypti, UniProt Q16MN0).
T2 sequence (Q16MN0 1-422): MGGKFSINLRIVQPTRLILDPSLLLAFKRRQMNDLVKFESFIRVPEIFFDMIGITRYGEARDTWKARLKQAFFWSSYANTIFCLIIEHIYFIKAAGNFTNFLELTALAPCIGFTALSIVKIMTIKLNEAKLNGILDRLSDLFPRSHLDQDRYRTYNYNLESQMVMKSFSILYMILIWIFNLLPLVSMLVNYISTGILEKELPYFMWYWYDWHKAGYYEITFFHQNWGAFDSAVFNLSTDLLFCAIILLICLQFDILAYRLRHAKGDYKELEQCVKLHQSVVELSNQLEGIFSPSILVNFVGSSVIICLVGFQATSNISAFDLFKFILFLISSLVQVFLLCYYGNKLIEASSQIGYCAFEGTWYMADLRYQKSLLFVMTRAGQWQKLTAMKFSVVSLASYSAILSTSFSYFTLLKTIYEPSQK
T2 sequence (Q178U6 1-478 partner): T1 sequence (Q178U6 1-478)
Description: Activation of mosquito odorant receptor OR8 from Aedes aegypti (AaOR8), FIG. 17A. Type of data set: cell-based. Particulars: molar concentration, read-out: A. agypti OR8 EC50.
Excerpt: as §2
as §1, with “Considering the objective to extract Orco-rich membrane fragments less than <50 nm in length, receptor density should be sufficient to ensure that these short fragments contain Orco. To evaluate Orco density, this gene was expressed using the pCMV6-AC-mKate expression vectors (Origene), or other tagged version.” left out

Data set [9] has as its system OR9/OR10. The following applies: background, based on cell-based assays; cited from earlier work.

The EC50 is the midpoint of the concentration-response curve.

Chain of OR2 (Q8WTE6 whole entry, species assumed): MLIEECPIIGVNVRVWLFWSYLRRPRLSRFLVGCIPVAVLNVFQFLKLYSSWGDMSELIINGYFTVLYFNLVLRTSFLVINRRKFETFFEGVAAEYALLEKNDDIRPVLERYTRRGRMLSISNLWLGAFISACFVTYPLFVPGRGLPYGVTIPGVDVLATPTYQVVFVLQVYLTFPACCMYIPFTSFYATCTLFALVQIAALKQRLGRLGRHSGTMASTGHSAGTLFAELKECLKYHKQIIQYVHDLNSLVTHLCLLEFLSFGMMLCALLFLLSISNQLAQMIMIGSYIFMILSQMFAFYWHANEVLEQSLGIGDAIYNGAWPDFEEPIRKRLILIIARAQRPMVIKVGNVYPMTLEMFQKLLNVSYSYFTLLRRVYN
Chain of OR2 (Q7QCC7 whole entry partner, species assumed): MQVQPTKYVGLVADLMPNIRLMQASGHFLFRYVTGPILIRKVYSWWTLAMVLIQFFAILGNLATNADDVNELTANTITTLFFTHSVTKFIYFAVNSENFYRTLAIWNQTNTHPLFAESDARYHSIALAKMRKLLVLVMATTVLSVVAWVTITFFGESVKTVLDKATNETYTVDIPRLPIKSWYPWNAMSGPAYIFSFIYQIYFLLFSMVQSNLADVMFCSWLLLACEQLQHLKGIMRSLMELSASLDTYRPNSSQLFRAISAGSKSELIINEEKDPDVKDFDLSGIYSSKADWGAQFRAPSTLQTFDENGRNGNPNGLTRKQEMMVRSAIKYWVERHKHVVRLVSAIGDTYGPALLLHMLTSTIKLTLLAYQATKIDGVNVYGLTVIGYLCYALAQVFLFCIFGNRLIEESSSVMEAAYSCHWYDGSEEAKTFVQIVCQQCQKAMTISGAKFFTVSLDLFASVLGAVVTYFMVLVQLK

Regarding `Cc1ccc(C(C)C)cc1O` [carvacrol], the “effect on VUAA1-activated Orco” value in data set [1] is listed as “inhibit VUAA1-activated Orco”.

On to `CCc1ccc(NC(=O)CSc2nnc(-c3cccnc3)n2CC)cc1` [VUAA1], for which, in [1] (Xenopus oocytes, pSP64DV expression vector), the “currents recorded from Orco exposed to VUAA1” value is listed as “over 1 μA”.

`c1ccc2[nH]ccc2c1` [indole]: in data set [2], the solubility in water result is given as “sparingly soluble”. The “concentration range of selective response of OR2” value in [3] is listed as “upper picomolar range”.

With `C=C[C@H](O)CCCCC` [(R)-1-octen-3-ol], the “sensitivity of AaOR8 (activating concentration range)” value in data set [4] is reported as “parts per billion range”. Also, the “concentration range at which OR8 is activated” value in [5] was “parts per billion range”. Further, in [6], the “sensitivity of TaOR8 (activating concentration range)” value was “parts per billion range”.

For the compound octadienal, in data set [1], the “effect on VUAA1-activated Orco” value is “inhibit VUAA1-activated Orco”.

On to `C=C[C@H](O)CCCCC` [(R)-1-Octen-3-ol, (R)-1-octen-3-ol], for which the EC50 was determined as 401 nM in data set [7] and 213 nM in data set [8].

With `Cc1c[nH]c2ccccc12` [skatole], the solubility in water entry in data set [2] is given as “sparingly soluble”. In addition, in [9], the “concentration range of selective response of OR9/OR10” value was “upper picomolar range”.

The record behind these values is patent US12571764B2, “Receptor-based biosensors” (STATE OF ISRAEL, MINISTRY OF AGRICULTURE & RURAL …, priority 2020, dated 2026).
